Measured values taken from publication PMC5674032, “New Insights into PI3K Inhibitor Design using X-ray Structures of PI3Kα Complexed with a Potent Lead Compound” (Scientific Reports, 2017).

Target: T1, PI3Kα (p110α) (Homo sapiens, UniProt P42336)
T1 construct: gene PIK3CA; N-6*His tag-TEV site-p85α (318–615) - GSPGISGGGGG-full length p110α fusion protein; with p85α (318–615), PIK3R1
Experiment: X-ray co-crystal structure (apo crystals soaked); IC50 from PI3K HTRF assay on purified enzyme
Format: biochemical
Text: X-ray co-crystal structure (apo crystals soaked); IC50 from PI3K HTRF assay on purified enzyme on PI3Kα (p110α) | The crystal structure of PI3Kα–YXY-4F verified that the compound YXY-4F bound to the ATP-binding pocket

T1 sequence (P42336 whole entry, the tested form may be a part): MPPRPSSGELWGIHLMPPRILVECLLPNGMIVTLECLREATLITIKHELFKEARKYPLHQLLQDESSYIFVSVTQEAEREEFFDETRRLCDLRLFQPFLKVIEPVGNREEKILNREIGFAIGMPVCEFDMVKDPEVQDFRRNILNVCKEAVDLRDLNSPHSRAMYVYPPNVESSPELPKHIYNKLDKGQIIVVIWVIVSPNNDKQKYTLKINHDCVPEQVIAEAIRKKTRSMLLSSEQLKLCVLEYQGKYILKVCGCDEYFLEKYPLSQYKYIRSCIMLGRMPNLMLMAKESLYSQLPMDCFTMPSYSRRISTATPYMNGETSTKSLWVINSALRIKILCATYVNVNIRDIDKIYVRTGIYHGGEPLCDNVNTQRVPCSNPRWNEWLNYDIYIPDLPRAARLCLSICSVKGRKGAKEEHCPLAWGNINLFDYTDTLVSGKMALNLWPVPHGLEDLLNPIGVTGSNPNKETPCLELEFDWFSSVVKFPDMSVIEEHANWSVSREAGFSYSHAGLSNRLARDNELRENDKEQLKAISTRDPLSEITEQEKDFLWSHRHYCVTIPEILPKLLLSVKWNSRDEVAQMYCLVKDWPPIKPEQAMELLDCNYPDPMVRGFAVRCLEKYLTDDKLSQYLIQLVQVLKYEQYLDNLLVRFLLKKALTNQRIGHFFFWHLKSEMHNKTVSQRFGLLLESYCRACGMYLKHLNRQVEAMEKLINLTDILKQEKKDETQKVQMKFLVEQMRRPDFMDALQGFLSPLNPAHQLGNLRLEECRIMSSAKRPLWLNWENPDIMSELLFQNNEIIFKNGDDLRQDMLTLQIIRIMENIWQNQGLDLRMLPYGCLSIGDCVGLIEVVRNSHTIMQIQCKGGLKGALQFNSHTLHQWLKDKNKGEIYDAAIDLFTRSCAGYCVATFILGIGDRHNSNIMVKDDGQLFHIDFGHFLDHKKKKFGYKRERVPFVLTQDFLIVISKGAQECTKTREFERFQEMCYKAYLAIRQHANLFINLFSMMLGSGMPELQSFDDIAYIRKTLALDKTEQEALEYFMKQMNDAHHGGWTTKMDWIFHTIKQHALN
T1 sequence (P27986 318-615 partner): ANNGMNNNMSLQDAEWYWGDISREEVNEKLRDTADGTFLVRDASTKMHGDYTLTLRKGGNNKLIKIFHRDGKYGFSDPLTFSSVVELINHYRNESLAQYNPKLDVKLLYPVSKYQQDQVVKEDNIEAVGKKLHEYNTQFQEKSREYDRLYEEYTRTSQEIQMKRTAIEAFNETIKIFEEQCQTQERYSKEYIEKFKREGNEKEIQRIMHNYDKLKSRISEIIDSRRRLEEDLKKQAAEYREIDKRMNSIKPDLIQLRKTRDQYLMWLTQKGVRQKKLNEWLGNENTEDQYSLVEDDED

SMILES: Oc1cc(NCc2ccc(F)cc2)cc(-c2nc(N3CCOCC3)c3sccc3n2)c1 [YXY-4F]
- IC50: 1020 ± 5 nM
